# Measurements from patent US12473289B2, “Heterocyclic compounds as delta-5 desaturase inhibitors and methods of use” (Amgen Inc., priority 2019, dated 2025).
# Molecular target: Delta-5-Desaturase (D5D) (Homo sapiens (Human), UniProt O60427)
# Test: In vitro measurement of Delta-5-Desaturase inhibitory activity using DGLA-CoA and Arachidonyl-CoA mass spectrometric assays
# Format: biochemical
# Details: membrane preparations of D5D-overexpressing HEK293 6E cells; averaged over at least two independent runs
# Method: In vitro Measurement of Delta-5-Desaturase Inhibitory Activity using DGLA-CoA and Arachidonyl-CoA Mass Spectrometric Assays
# Membrane preparations of D5D-overexpressing HEK293 6E cells were prepared in which the total protein concentration was 5.6 mg/mL. Stock D5D membrane preparations were diluted in D5D assay buffer (25 mM 2-amino-2-(hydroxymethyl)-1,3-propanediol, pH 7.5 containing 10 mM MgCl2, 1 mM octyl glucoside (SigmaAldrich 0-8001), 1 mM tris(2-carboxyethyl)phosphine hydrochloride (SigmaAldrich 646547)) to a final D5D membrane concentration of 10 μg/mL in an assay plate containing serially diluted test compounds. To 15 μL of this D5D preparation was added 15 μL of a substrate solution (0.25 mM NADH (nicotinamide adenine dinucleotide, Roche Diag. 10107735001), 0.25 mM adenosine triphosphate (SigmaAldrich A-3377), 0.05 mM coenzyme A hydrate (SigmaAldrich C-4282), and 0.01 mM DGLA (dihomo-g-linolenic acid, Sigma E-4504) in the same D5D assay buffer. After one-hour incubation at ambient temperature acetonitrile (30 μL) was added to quench the reaction and plates were centrifuged for 10 min @3,000 rpm. Mass spectrometric analysis involved a Rapidfire 360 SPE system coupled to an ABSciex API4000 Triple Quadrupole mass spectrometer using a C18 SPE cartridge (G9203-80105) with ionization in negative mode (solvent A=100% water; solvent B=100% acetonitrile, each solvent containing 5 mM ammonium acetate). DGLA-CoA and Arachidonyl-CoA were detected by multiple reaction monitoring (MRM) of the doubly charged parent ions at m/z 526.6 and 525.6, respectively.
# Sx is value from unknown sample, So is value from DMSO alone and Sc is value from no enzyme well. For CRC analysis, the % of inhibitions were analyzed with 4 Parameter Logistic Model or Sigmoidal Dose-Response Model using XLfit (IDBS, Guilford, UK). The potency of the test item was expressed as IC50 nM, corresponding to the test item concentration able to inhibit the 50% of the enzyme maximal response. IC50 values were averaged values determined by at least two independent runs.
# This assay may be used to test any of the compounds described herein to assess and characterize a compound's ability to inhibit D5D.
# Sequence of Delta-5-Desaturase (D5D) (O60427 whole entry, species assumed): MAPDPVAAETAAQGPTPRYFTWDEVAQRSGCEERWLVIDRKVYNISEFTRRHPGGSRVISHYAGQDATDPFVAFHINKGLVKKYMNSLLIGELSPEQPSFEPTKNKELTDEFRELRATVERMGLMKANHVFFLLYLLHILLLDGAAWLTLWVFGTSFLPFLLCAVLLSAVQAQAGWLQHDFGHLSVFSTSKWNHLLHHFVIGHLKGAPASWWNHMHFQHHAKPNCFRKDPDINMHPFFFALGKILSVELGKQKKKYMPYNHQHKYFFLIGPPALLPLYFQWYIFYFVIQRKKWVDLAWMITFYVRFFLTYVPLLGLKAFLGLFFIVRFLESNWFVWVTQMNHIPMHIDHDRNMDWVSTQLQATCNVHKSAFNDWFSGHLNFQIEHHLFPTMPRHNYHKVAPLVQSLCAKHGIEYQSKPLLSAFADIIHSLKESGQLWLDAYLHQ
row,IC50 [nM],SMILES
1,110,"O=c1c(-c2cnn(CC(F)(F)C(F)(F)F)c2)c(C(F)(F)F)nc2ccc(C3CC3)cn12 [Example 39-21, 7-cyclopropyl-3-[1-(2,2,3,3,3-pentafluoropropyl)-1H-pyrazol-4-yl]-2-(trifluoromethyl)-4H-pyrido[1,2-a]pyrimidin-4-one]"
2,19.9,"Cc1ccc2nc(C(F)(F)F)c(-c3cnn(CCC(F)(F)F)c3)c(=O)n2n1 [Example 39-33, 7-methyl-2-(trifluoromethyl)-3-[1-(3,3,3-trifluoropropyl)-1H-pyrazol-4-yl]-4H-pyrimido[1,2-b]pyridazin-4-one]"
3,5380,"Cc1ccn2c(=O)c(-c3noc(CCC(F)(F)F)n3)c(C(F)(F)F)nc2c1 [Example 50, 8-Methyl-2-(trifluoromethyl)-3-[5-(3,3,3-trifluoropropyl)-1,2,4-oxadiazol-3-yl]-4H-pyrido[1,2-a]pyrimidin-4-one]"
4,566,"COc1ccn2c(=O)c(-c3ccc(O[C@H](C)C#N)cc3)c(C(F)(F)F)nc2c1 [Example 8-8, (2R)-2-(4-(8-methoxy-4-oxo-2-(trifluoromethyl)-4H-pyrido[1,2-a]pyrimidin-3-yl)phenoxy)propanenitrile]"
5,26.1,"COc1ccn2c(=O)c(-c3ccc(OCCF)cc3)c(C(F)(F)F)nc2c1 [Example 1-11, 3-(4-(2-fluoroethoxy)phenyl)-8-methoxy-2-(trifluoromethyl)-4H-pyrido[1,2-a]pyrimidin-4-one]"
6,3.9,"[2H]C([2H])([2H])c1ccn2c(=O)c(-c3ccc(OCC(F)(F)F)cc3)c(C(F)(F)F)nc2c1 [Example 2-5, 8-(methyl-d3)-3-(4-(2,2,2-trifluoroethoxy)phenyl)-2-(trifluoromethyl)-4H-pyrido[1,2-a]pyrimidin-4-one]"
7,> 67000,"COc1ccc2nc(C(F)(F)F)c(-c3cnc(OCC(F)(F)F)nc3)c(=O)n2n1 [Example 39-15, 7-methoxy-3-[2-(2,2,2-trifluoroethoxy)pyrimidin-5-yl]-2-(trifluoromethyl)-4H-pyrimido[1,2-b]pyridazin-4-one]"
8,2.7,"COc1ccn2c(=O)c(-c3ccc(OC[C@@H]4CC4(F)F)cc3)c(C(F)(F)F)nc2c1 (single isomer, unassigned) [Example 1-84]"
9,1150,"COc1ccn2c(=O)c(-c3ncc(OCC(F)(F)F)s3)c(C(F)(F)F)nc2c1 [Example 57, 8-methoxy-3-[5-(2,2,2-trifluoroethoxy)-1,3-thiazol-2-yl]-2-(trifluoromethyl)-4H-pyrido[1,2-a]pyrimidin-4-one]"
10,110,"COc1ccn2c(=O)c(-c3cnc(-c4ccccc4)o3)c(C(F)(F)F)nc2c1 [Example 1-6, 8-methoxy-3-(2-phenyl-1,3-oxazol-5-yl)-2-(trifluoromethyl)-4H-pyrido[1,2-a]pyrimidin-4-one]"
11,5230,"O=c1c(-c2ccc(OCC(F)(F)F)cn2)c(C(F)(F)F)nc2ccccn12 [Example 7-2, 3-(5-(2,2,2-trifluoroethoxy)-2-pyridinyl)-2-(trifluoromethyl)-4H-pyrido[1,2-a]pyrimidin-4-one]"
12,553,"CC1(c2ccn3c(=O)c(-c4ccc(OCC(F)(F)F)cc4)c(C(F)(F)F)nc3c2)CCO1 (centres unmarked) [Example 27, 8-(2-Methyl-2-oxetanyl)-3-(4-(2,2,2-trifluoroethoxy)phenyl)-2-(trifluoromethyl)-4H-pyrido[1,2-a]pyrimidin-4-one]"
13,43.6,"Cn1c(=O)c(F)cn2c(=O)c(-c3cnn(CC(F)(F)C(F)(F)F)c3)c(C(F)(F)F)nc12 [Example 63, 3-Fluoro-1-methyl-7-[1-(2,2,3,3,3-pentafluoropropyl)-1H-pyrazol-4-yl]-8-(trifluoromethyl)-1H,2H,6H-[1,3]diazino[1,2-a]pyrimidine-2,6-dione]"
14,160,"C[C@H](O)c1ccn2c(=O)c(-c3cnn(CC(F)(F)C(F)(F)F)c3)c(C(F)(F)F)nc2c1 [Example 31-2, 8-((1S)-1-hydroxyethyl)-3-(1-(2,2,3,3,3-pentafluoropropyl)-1H-pyrazol-4-yl)-2-(trifluoromethyl)-4H-pyrido[1,2-a]pyrimidin-4-one]"
15,128,"CN(C)Cc1ccn2c(=O)c(-c3cnn(CC(F)(F)C(F)(F)F)c3)c(C(F)(F)F)nc2c1 [Example 26, 8-((Dimethylamino)methyl)-3-(1-(2,2,3,3,3-pentafluoropropyl)-1H-pyrazol-4-yl)-2-(trifluoromethyl)-4H-pyrido[1,2-a]pyrimidin-4-one]"
16,8.5,"COc1ccn2c(=O)c(-c3ccc(OCC(F)(F)F)cc3F)c(C(F)(F)F)nc2n1 [Example 1-53, 3-(2-fluoro-4-(2,2,2-trifluoroethoxy)phenyl)-8-methoxy-2-(trifluoromethyl)-4H-pyrimido[1,2-a]pyrimidin-4-one]"
17,1.7,"Cc1ccc2nc(C(F)(F)F)c(-c3cnn(CC(F)(F)C(F)(F)F)c3)c(=O)n2c1 [Example 39-19, 7-methyl-3-[1-(2,2,3,3,3-pentafluoropropyl)-1H-pyrazol-4-yl]-2-(trifluoromethyl)-4H-pyrido[1,2-a]pyrimidin-4-one]"
18,13.4,"O=c1c(-c2cnn(CC(F)(F)C(F)(F)F)c2)c(C(F)(F)F)nc2cnc(Cl)cn12 [Example 39-35, 7-chloro-3-[1-(2,2,3,3,3-pentafluoropropyl)-1H-pyrazol-4-yl]-2-(trifluoromethyl)-4H-pyrazino[1,2-a]pyrimidin-4-one]"
19,17.6,"CCCn1cc(-c2c(C(F)(F)F)nc3cc(OC)ccn3c2=O)cn1 [Example 1-76, 8-methoxy-3-(1-propyl-1H-pyrazol-4-yl)-2-(trifluoromethyl)-4H-pyrido[1,2-a]pyrimidin-4-one]"
20,> 67000,"COc1ccn2c(=O)c(-c3ncn(CC(F)(F)C(F)(F)F)n3)c(C(F)(F)F)nc2c1 [Example 54, 8-Methoxy-3-[1-(2,2,3,3,3-pentafluoropropyl)-1H-1,2,4-triazol-3-yl]-2-(trifluoromethyl)-4H-pyrido[1,2-a]pyrimidin-4-one]"
21,18.8,"CSc1ccn2c(=O)c(-c3cnn(CC(F)(F)C(F)(F)F)c3)c(C(F)(F)F)nc2c1 [Example 1-30, 8-(methylsulfanyl)-3-(1-(2,2,3,3,3-pentafluoropropyl)-1H-pyrazol-4-yl)-2-(trifluoromethyl)-4H-pyrido[1,2-a]pyrimidin-4-one]"
22,> 67000,"O=c1c(-c2cnc(OCC(F)(F)F)nc2)c(C(F)(F)F)nc2ccc(F)cn12 [Example 39-26, 7-fluoro-3-[2-(2,2,2-trifluoroethoxy)pyrimidin-5-yl]-2-(trifluoromethyl)-4H-pyrido[1,2-a]pyrimidin-4-one]"
23,10.5,"COc1ccn2c(=O)c(-c3cnn(C[C@@H]4CC4(F)F)c3)c(C(F)(F)F)nc2c1 [Example 70, 3-(1-{[(1S)-2,2-Difluorocyclopropyl]methyl}-1H-pyrazol-4-yl)-8-methoxy-2-(trifluoromethyl)-4H-pyrido[1,2-a]pyrimidin-4-one]"
24,112,"[2H]C([2H])([2H])Oc1ccn2c(=O)c(-c3ccc(OCCF)cc3)c(C(F)(F)F)nc2n1 [Example 1-55, 3-(4-(2-fluoroethoxy)phenyl)-8-(methyloxy-d3)-2-(trifluoromethyl)-4H-pyrimido[1,2-a]pyrimidin-4-one]"
25,371,"COc1ccn2c(=O)c(-c3ccn(-c4ccccc4)n3)c(C(F)(F)F)nc2c1 [Example 1-3, 8-methoxy-3-(1-phenyl-1H-pyrazol-3-yl)-2-(trifluoromethyl)-4H-pyrido[1,2-a]pyrimidin-4-one]"
26,51.8,"Cc1cnc2nc(C(F)(F)F)c(-c3cnn(CC(F)(F)C(F)(F)F)c3)c(=O)n2c1 [Example 40-2, 7-methyl-3-[1-(2,2,3,3,3-pentafluoropropyl)-1H-pyrazol-4-yl]-2-(trifluoromethyl)-4H-[1,3]diazino[1,2-a]pyrimidin-4-one]"
27,4.6,"COc1ccn2c(=O)c(-c3cnn(CC4CC(F)(F)C4)c3)c(C(F)(F)F)nc2c1 [Example 39-49, 3-{1-[(3,3-difluorocyclobutyl)methyl]-1H-pyrazol-4-yl}-8-methoxy-2-(trifluoromethyl)-4H-pyrido[1,2-a]pyrimidin-4-one]"
28,562,"C[S@@+]([O-])c1ccn2c(=O)c(-c3ccc(OCC(F)(F)F)cc3)c(C(F)(F)F)nc2c1 [Example 15-2, 8-((R)-methylsulfinyl)-3-(4-(2,2,2-trifluoroethoxy)phenyl)-2-(trifluoromethyl)-4H-pyrido[1,2-a]pyrimidin-4-one]"
29,44.7,"COc1ccn2c(=O)c(-c3cn(CC(F)(F)C(F)(F)F)nn3)c(C(F)(F)F)nc2c1 [Example 53, 8-Methoxy-3-[1-(2,2,3,3,3-pentafluoropropyl)-1H-1,2,3-triazol-4-yl]-2-(trifluoromethyl)-4H-pyrido[1,2-a]pyrimidin-4-one]"
